These results are taken from patent US9382254B2, “Compounds and pharmaceutical compositions thereof for the treatment of cystic fibrosis” (Galapagos NV, priority 2013, dated 2016).

pEC50: −log10 of the molar value.

For this experiment, the target named is T1, CFTR ΔF508 mutant (Homo sapiens, UniProt P13569, DEL508-508).
T1 construct: expressed in transfected cells; host or cells: CFBE41o- (adenoviral transduction)
The experiment can be described thus: YFP-halide influx assay for the CFTR-ΔF508 mutation, gluconate buffer. It is filed as cell-based. As to conditions: CFBE41o- cells, forskolin 10.67 μM. A digest of the protocol: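 Channel opening is read as the fall in YFP fluorescence over 7 s following iodide injection, expressed as 1-F/F0 and plotted versus compound concentration to derive EC50. Cells used were CFBE41o- expressing adenoviral ΔF508 CFTR and halide-sensitive YFP, rescued by 24 h at 27 °C or 24 h modulator treatment at 37 °C.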

A word on the pEC50: it is the negative decadic logarithm of the EC50, by convention in mol/L. Read a low pEC50 as a large EC50.

T1 sequence (P13569 with tags, fused parts or gaps DEL508-508): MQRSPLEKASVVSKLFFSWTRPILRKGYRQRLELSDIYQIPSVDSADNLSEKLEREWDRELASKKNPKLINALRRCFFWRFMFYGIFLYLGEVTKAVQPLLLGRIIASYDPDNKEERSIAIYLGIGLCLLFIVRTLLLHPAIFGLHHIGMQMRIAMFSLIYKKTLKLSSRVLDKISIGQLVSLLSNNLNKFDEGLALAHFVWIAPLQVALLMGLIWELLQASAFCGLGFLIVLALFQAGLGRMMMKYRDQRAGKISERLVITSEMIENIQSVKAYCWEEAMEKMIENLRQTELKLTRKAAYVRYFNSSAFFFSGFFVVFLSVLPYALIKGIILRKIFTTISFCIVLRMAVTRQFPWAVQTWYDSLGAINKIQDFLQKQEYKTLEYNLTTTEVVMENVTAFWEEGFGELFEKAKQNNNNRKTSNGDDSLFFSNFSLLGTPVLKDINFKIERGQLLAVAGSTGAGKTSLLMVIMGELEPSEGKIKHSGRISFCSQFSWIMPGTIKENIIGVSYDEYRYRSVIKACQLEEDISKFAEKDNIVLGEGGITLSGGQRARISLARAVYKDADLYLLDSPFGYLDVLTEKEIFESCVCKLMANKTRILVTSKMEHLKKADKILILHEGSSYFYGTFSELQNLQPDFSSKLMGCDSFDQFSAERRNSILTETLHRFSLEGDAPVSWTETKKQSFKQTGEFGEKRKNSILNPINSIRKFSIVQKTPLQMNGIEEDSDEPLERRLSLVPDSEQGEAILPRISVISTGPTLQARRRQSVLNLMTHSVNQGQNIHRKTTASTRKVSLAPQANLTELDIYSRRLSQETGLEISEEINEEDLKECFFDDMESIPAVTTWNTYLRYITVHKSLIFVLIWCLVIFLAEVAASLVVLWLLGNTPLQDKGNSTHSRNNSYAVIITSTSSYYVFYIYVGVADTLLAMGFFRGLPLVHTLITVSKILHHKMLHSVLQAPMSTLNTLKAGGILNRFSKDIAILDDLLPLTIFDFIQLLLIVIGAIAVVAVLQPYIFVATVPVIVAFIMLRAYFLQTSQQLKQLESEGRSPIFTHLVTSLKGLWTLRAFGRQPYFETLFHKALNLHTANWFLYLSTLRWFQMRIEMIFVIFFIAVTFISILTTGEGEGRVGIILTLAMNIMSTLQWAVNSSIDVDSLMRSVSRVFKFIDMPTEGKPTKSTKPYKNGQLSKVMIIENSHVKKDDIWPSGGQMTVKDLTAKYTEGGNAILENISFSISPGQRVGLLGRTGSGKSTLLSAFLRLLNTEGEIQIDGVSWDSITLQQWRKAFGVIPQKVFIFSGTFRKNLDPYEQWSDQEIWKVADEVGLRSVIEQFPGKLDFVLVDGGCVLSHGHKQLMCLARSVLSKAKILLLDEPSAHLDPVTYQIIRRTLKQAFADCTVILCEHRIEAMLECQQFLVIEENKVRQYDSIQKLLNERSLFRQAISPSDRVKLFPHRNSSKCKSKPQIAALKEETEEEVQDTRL

As for `NC(=O)c1cc(S(=O)(=O)C2CCCCC2)sc1NC(=O)c1ccccc1F` [Compound 129, 5-(cyclohexylsulfonyl)-2-(2-fluorobenzamido) thiophene-3-carboxamide], the negative logarithm of the EC50 (pEC50) is 6.56. The compound `COc1ccc(CS(=O)(=O)c2cc(C(N)=O)c(NC(=O)c3ccccc3F)s2)cc1` [Compound 130, 2-(2-fluorobenzamido)-5-(4-methoxybenzylsulfonyl) thiophene-3-carboxamide] had a negative-log EC50 (pEC50) of 6.42. As to `NC(=O)c1cc(S(=O)(=O)N2CCOCC2)sc1NC(=O)C1(O)CC1` [Compound 131, 2-(1-hydroxycyclopropanecarboxamido)-5-(morpholinosulfonyl) thiophene-3-carboxamide], the pEC50 was 6.04. In the case of `Cc1nc(C(=O)Nc2sc(S(=O)(=O)N3CCOCC3)cc2C(N)=O)cs1` [Compound 132, N-(3-carbamoyl-5-(morpholinosulfonyl)thiophen-2-yl)-2-methylthiazole-4-carboxamide] it was 5.48; in that of `NC(=O)c1cc(S(=O)(=O)N2CCOCC2)sc1NC(=O)c1ccc(Cl)cc1F` [Compound 133, 2-(4-chloro-2-fluorobenzamido)-5-(morpholinosulfonyl) thiophene-3-carboxamide], 6.57; in that of `NC(=O)c1cc(S(=O)(=O)N2CCOCC2)sc1NC(=O)c1cccc(C2CC2)c1` [Compound 134, 2-(3-cyclopropylbenzamido)-5-(morpholinosulfonyl) thiophene-3-carboxamide], 6.02. For `COc1cc(C)ccc1C(=O)Nc1sc(S(=O)(=O)N2CCOCC2)cc1C(N)=O` [Compound 135, 2-(2-methoxy-4-methylbenzamido)-5-(morpholinosulfonyl) thiophene-3-carboxamide] the value was less than 6.00.

As for `Cc1ccccc1C(=O)Nc1sc(S(=O)(=O)N2CCOCC2)cc1C(N)=O` [Compound 136, 2-(2-methylbenzamido)-5-(morpholinosulfonyl) thiophene-3-carboxamide], the negative logarithm of the EC50 (pEC50) is 6.54. For `NC(=O)c1cc(S(=O)(=O)N2CCOCC2)sc1NC(=O)c1cccc(O)c1` [Compound 137, 2-(3-hydroxybenzamido)-5-(morpholinosulfonyl) thiphene-3-carboxamide] the value was 6.58; for `NC(=O)c1cc(S(=O)(=O)N2CCOCC2)sc1NC(=O)c1ccc(F)cc1F` [Compound 138, 2-(2,4-difluorobenzamido)-5-(morpholinosulfonyl) thiophene-3-carboxamide], 6.50; for `NC(=O)c1cc(S(=O)(=O)N2C[C@@H]3C[C@H]2CO3)sc1NC(=O)c1ccccc1F` [Compound 144, 5-((1S,4S)-2-oxa-5-azabicyclo[2.2.1]heptan-5-ylsulfonyl)-2-(2-fluorobenzamido) thiophene-3-carboxamide], 6.44. In the case of `NC(=O)c1cc(S(=O)(=O)N2CCCOCC2)sc1NC(=O)c1cc[nH]n1` [Compound 146, N-(5-(1,4-oxazepan-4-ylsulfonyl)-3-carbamoylthiophen-2-yl)-1H-pyrazole-3-carboxamide] it was 6.62.

Consider `COc1ccc(CN(C)S(=O)(=O)c2cc(C(N)=O)c(NC(=O)c3ccccc3F)s2)cc1` [Compound 147, 2-(2-fluorobenzamido)-5-(N-(4-methoxybenzyl)-N-methylsulfamoyl)thiophene-3-carboxamide], for which the pEC50 is 6.62.

`CC(C)(C)OC(=O)N1CCC2(CC1)CCN(S(=O)(=O)c1cc(C(N)=O)c(NC(=O)c3ccccc3F)s1)C2` [Compound 148, tert-butyl 2-(4-carbamoyl-5-(2-fluorobenzamido)thiophen-2-ylsulfonyl)-2,8-diazaspiro[4.5]decane-8-carboxylate] had a pEC50 of 6.46.

`CC(C)(O)C1CCN(S(=O)(=O)c2cc(C(N)=O)c(NC(=O)c3ccccc3F)s2)CC1` [Compound 149, 2-(2-fluorobenzamido)-5-(4-(2-hydroxypropan-2-yl)piperidin-1-ylsulfonyl) thiophene-3-carboxamide] gave a pEC50 of 6.29. In the case of `NC(=O)c1cc(S(=O)(=O)N2CCc3ccccc3C2)sc1NC(=O)c1ccccc1F` [Compound 150] it was 6.19. In the case of `NC(=O)c1cc(S(=O)(=O)N2Cc3ccccc3C2)sc1NC(=O)c1ccccc1F` [Compound 151, 2-(2-fluorobenzamido)-5-(isoindolin-2-ylsulfonyl)thiophene-3-carboxamide] it was 6.45; in that of `CN1CCC(N(C)S(=O)(=O)c2cc(C(N)=O)c(NC(=O)c3ccccc3F)s2)CC1` [Compound 155, 2-(2-fluorobenzamido)-5-(N-methyl-N-(1-methylpiperidin-4-yl)sulfamoyl) thiophene-3-carboxamide], less than 6.00; in that of `NC(=O)c1cc(S(=O)(=O)N(Cc2cccc(F)c2)C2CC2)sc1NC(=O)c1ccccc1F` [Compound 156, 5-(N-cyclopropyl-N-(3-fluorobenzyl)sulfamoyl)-2-(2-fluorobenzamido) thiophene-3-carboxamide], 6.44. For `NC(=O)c1cc(S(=O)(=O)N2CCC(c3ccccc3)CC2)sc1NC(=O)c1ccccc1F` [Compound 159, 2-(2-fluorobenzamido)-5-(4-phenylpiperidin-1-ylsulfonyl)thiophene-3-carboxamide], the pEC50 was 6.39. On to `CN(C1CCOCC1)S(=O)(=O)c1cc(C(N)=O)c(NC(=O)c2ccccc2F)s1` [Compound 161, 2-(2-fluorobenzamido)-5-(N-methyl-N-(tetrahydro-2H-pyran-4-yl)sulfamoyl) thiophene-3-carboxamide], for which the negative-log EC50 (pEC50) is 6.65.

For `N#CC1CCN(S(=O)(=O)c2cc(C(N)=O)c(NC(=O)c3ccccc3F)s2)CC1` [Compound 162, 5-(4-cyanopiperidin-1-ylsulfonyl)-2-(2-fluorobenzamido) thiophene-3-carboxamide], the pEC50 is 6.48. Turning to `CC(C)S(=O)(=O)c1cc(C(N)=O)c(NC(=O)c2ccccc2F)s1` [Compound 163, 2-(2-fluorobenzamido)-5-(isopropylsulfonyl) thiophene-3-carboxamide], the pEC50 is 6.57.

`CC(C)(C)S(=O)(=O)c1cc(C(N)=O)c(NC(=O)c2ccccc2F)s1` [Compound 164, 5-(tert-butylsulfonyl)-2-(2-fluorobenzamido) thiophene-3-carboxamide] gave a pEC50 of less than 6.00. For `NC(=O)c1cc(S(=O)(=O)C2CCOCC2)sc1NC(=O)c1ccccc1F` [Compound 165, 2-(2-fluorobenzamido)-5-(tetrahydro-2H-pyran-4-ylsulfonyl)thiophene-3-carboxamide] the value was less than 6.00. The compound `Cc1cc(C(=O)Nc2sc(S(=O)(=O)N3CCOCC3)cc2C(N)=O)n[nH]1` [Compound 166, N-(3-carbamoyl-5-(morpholinosulfonyl)thiophen-2-yl)-5-methyl-1H-pyrazole-3-carboxamide] showed a pEC50 of 6.09.

In turn, `Cn1nc(C(C)(C)C)cc1C(=O)Nc1sc(S(=O)(=O)N2CCOCC2)cc1C(N)=O` [Compound 167, 3-tert-butyl-N-(3-carbamoyl-5-(morpholinosulfonyl)thiophen-2-yl)-1-methyl-1H-pyrazole-5-carboxamide] showed a negative-log EC50 (pEC50) of 5.52. In the case of `COc1cc(F)ccc1C(=O)Nc1sc(S(=O)(=O)N2CCOCC2)cc1C(N)=O` [Compound 168, 2-(4-fluoro-2-methoxybenzamido)-5-(morpholinosulfonyl) thiophene-3-carboxamide] it was 5.78; in that of `Cc1cc(F)ccc1C(=O)Nc1sc(S(=O)(=O)N2CCOCC2)cc1C(N)=O` [Compound 169, 2-(4-fluoro-2-methylbenzamido)-5-(morpholinosulfonyl) thiophene-3-carboxamide], 6.68; in that of `CN(C)C1CCN(S(=O)(=O)c2cc(C(N)=O)c(NC(=O)c3ccccc3F)s2)CC1` [Compound 174, 5-(4-(dimethylamino)piperidin-1-ylsulfonyl)-2-(2-fluorobenzamido) thiophene-3-carboxamide], 5.62.

Turning to `N#CC1CN(S(=O)(=O)c2cc(C(N)=O)c(NC(=O)c3ccccc3F)s2)C1` [Compound 176, 5-(3-cyanoazetidin-1-ylsulfonyl)-2-(2-fluorobenzamido)thiophene-3-carboxamide], the pEC50 is 5.84.

As for `NC(=O)c1cc(S(=O)(=O)N2CC(F)C2)sc1NC(=O)c1ccccc1F` [Compound 177, 5-(3-fluoroazetidin-1-ylsulfonyl)-2-(2-fluorobenzamido)thiophene-3-carboxamide], the pEC50 was 6.75. Consider `NC(=O)c1cc(S(=O)(=O)c2ccccn2)sc1NC(=O)c1ccccc1F` [Compound 178, 2-(2-fluorobenzamido)-5-(pyridin-2-ylsulfonyl) thiophene-3-carboxamide], for which the negative logarithm of the EC50 (pEC50) was 6.28. For `Cc1ccccc1S(=O)(=O)c1cc(C(N)=O)c(NC(=O)c2ccccc2F)s1` [Compound 180, 2-(2-fluorobenzamido)-5-(o-tolylsulfonyl)thiophene-3-carboxamide] the value was 6.91; for `COc1ccccc1S(=O)(=O)c1cc(C(N)=O)c(NC(=O)c2ccccc2F)s1` [Compound 181, 2-(2-fluorobenzamido)-5-(2-methoxyphenylsulfonyl) thiophene-3-carboxamide], 6.84; for `CN(CC(C)(C)C)S(=O)(=O)c1cc(C(N)=O)c(NC(=O)c2ccccc2F)s1` [Compound 184, 2-(2-fluorobenzamido)-5-(N-methyl-N-neopentylsulfamoyl) thiophene-3-carboxamide], 6.17. `CN(CCC(F)(F)F)S(=O)(=O)c1cc(C(N)=O)c(NC(=O)c2ccccc2F)s1` [Compound 185, 2-(2-fluorobenzamido)-5-(N-methyl-N-(3,3,3-trifluoropropyl)sulfamoyl) thiophene-3-carboxamide] showed a negative-log EC50 (pEC50) of 6.48. For `COCCCN(C)S(=O)(=O)c1cc(C(N)=O)c(NC(=O)c2ccccc2F)s1` [Compound 186, 2-(2-fluorobenzamido)-5-(N-(3-methoxypropyl)-N-methylsulfamoyl)thiophene-3-carboxamide] the value was 6.57.
